# Experiment: Stability test (accelerated experiment, sealed PE/aluminum foil bags, 40±2° C., humidity 75±5%)
# Details: for Purity by HPLC / Appearance / XRPD: 40±2° C., humidity 75±5%
# Method: X-ray powder diffractometer model: Rigaku D/max-2200 Cu target; operation condition: scanning speed, 4°/min, scanning step width, 0.01°.
# High performance liquid chromatograph, Agilent1100; Chromatographic column: C18, 4.6 mm×250 mm; mobile phase, acetonitrile:0.1% phosphoric acid aqueous solution=65:35 (v:v); Detection wavelength: 240 nm; flow rate, 1.0 ml/min; Column temperature: 25° C.
# The bags were electrothermally sealed, and then placed into aluminum foil bags which were also electrothermally sealed.
substance,measurement,setting,value
tenvermectin B [crystal form I of tenvermectin B],Purity by HPLC,first month,99.0
same,Appearance,"first month, cell wraps: White / crystalline / powder",White
same,XRPD,"first month, cell wraps: crystal / form I",crystal
same,Purity by HPLC,initial data,99.1
same,XRPD,"initial data, cell wraps over 2 lines: crystal / form I",crystal
same,Appearance,"initial data, cell wraps over 3 lines: White / crystalline / powder",White
same,Purity by HPLC,second month,99.1
same,Appearance,"second month, cell wraps: White / crystalline / powder",White
same,XRPD,"second month, cell wraps: crystal / form I",crystal
same,Purity by HPLC,sixth month,98.9
same,Appearance,"sixth month, cell wraps: White / crystalline / powder",White
same,XRPD,"sixth month, cell wraps: crystal / form I",crystal
same,crystal transformation phenomenon in the stability experiment,stability experiment,does not occur
same,Purity by HPLC,third month,98.9
same,Appearance,"third month, cell wraps: White / crystalline / powder",White
same,XRPD,"third month, cell wraps: crystal / form I",crystal
